Assay [1] concerns the target T1, KRas G12D (Homo sapiens, UniProt P01116, G12D). The assay can be described thus: KRas G12D Binding Assay (TR-FRET displacement of labeled tracer). Also noted: corresponding to amino acids 1:169, produced at Array BioPharma; biotin (protein is biotinylated). Particulars: TR-FRET displacement of Cy5 labelled tracer, biotinylated GDP-loaded KRAS G12D (aa 1:169), 60 minute incubation at 22° C. In short, it runs like this: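 Biotinylated GDP-loaded human KRAS G12D (aa 1–169) incubated with Cy5 tracer, Eu-streptavidin and compound (2% DMSO final) in 50 mM HEPES pH 7.5, 5 mM MgCl2, 0.005% Tween-20, 1 mM DTT, 60 min at 22 °C. TR-FRET ratio converted to percent of control; IC50 at 50 POC from 4-parameter logistic fit.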
In general terms: In TR-FRET formats the signal depends on donor and acceptor labels being close together.
Target sequence in this assay (P01116 1-169 isoform P01116-2 G12D): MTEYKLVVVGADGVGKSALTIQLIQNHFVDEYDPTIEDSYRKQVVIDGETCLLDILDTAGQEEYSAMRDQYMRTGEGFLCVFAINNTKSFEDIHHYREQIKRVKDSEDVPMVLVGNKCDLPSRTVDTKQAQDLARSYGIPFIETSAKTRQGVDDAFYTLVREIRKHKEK

The subject of assay [2] is KRas G12D-mediated Phosphorylation of ERK. Nature of the assay: Inhibition of KRas G12D-mediated Phosphorylation of ERK in AGS cells. The class given is cell-based. Particulars: Homo sapiens; AGS cells expressing G12D, 3 hours, phospho-ERK normalized to GAPDH. The procedure, abridged:
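AGS cells (endogenous KRas G12D) were treated with compounds for 3 h in 0.5% DMSO, then fixed, permeabilized and immunostained. The phospho-ERK (Thr202/Tyr204) signal was normalized to GAPDH in-cell by infrared detection and expressed as % of DMSO control. IC50 came from a 4-parameter fit.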

Assay [3] deals with T1, KRas G12D. Nature of the assay: KRas G12D Surface Plasmon Resonance (SPR) Binding Assay. The settings on record: Biacore T200, biotinylated Avidin-tagged KRAS protein on SA chip, 20 C, 1:1 binding model. In short, it runs like this: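 Biotinylated Avi-tagged KRAS G12D was captured on a streptavidin chip; compounds were injected as 3-fold dilution series in HBS-Mg buffer, pH 7.5, with DMSO at 20 C (60 s contact, 120 s dissociation). Binding constants came from 1:1 model fits.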
Target sequence in this assay (P01116 1-188 isoform P01116-2 G12D): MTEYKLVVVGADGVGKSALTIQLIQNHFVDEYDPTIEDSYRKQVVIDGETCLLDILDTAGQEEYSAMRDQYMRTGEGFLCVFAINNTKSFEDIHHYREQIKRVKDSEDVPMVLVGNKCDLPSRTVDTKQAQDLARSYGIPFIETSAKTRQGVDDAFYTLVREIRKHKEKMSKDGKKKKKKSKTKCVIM

The IC50 is the concentration that gives 50% inhibition. A higher IC50 goes with a need for much substance. In general, Kd refers to the concentration at which binding is half-saturated. A high value points to a looser complex.

As to `CN1CCC[C@H]1COc1nc2c(c(N3C[C@H]4C[C@@H](CC#N)[C@@H](C3)N4)n1)CCN(c1cccc3cccc(Cl)c13)C2` [Example 40, 2-((1R,5S,6S)-3-(7-(8-chloronaphthalen-1-yl)-2-(((S)-1-methylpyrrolidin-2-yl)methoxy)-5,6,7,8-tetrahydropyrido[3,4-d]pyrimidin-4-yl)-3,8-diazabicyclo[3.2.1]octan-6-yl)acetonitrile], the IC50 at KRas G12D [1] is 63.9 nM; in assay [2] it was > 16700 nM. Also, at KRas G12D [3], the Kd came out at 957 nM.

With `CN1CCC[C@H]1COc1nc2c(c(N3C[C@H]4CC[C@@H](C3)N4)n1)CCN(c1cccc3ccc(F)c(Cl)c13)C2` [Example 65, 4-((1R,5S)-3,8-diazabicyclo[3.2.1]octan-3-yl)-7-(8-chloro-7-fluoronaphthalen-1-yl)-2-(((S)-1-methylpyrrolidin-2-yl)methoxy)-5,6,7,8-tetrahydropyrido[3,4-d]pyrimidine], the results for the IC50 (on KRas G12D [1]; in assay [2]) were 15.2 nM and > 16700 nM, respectively. The molecule further gave a Kd on KRas G12D [3] of 18.2 nM.

As for `FC1CN2CCCC2(COc2nc3c(c(N4CC5CC(F)C(C4)N5)n2)CCN(c2cccc4cccc(Cl)c24)C3)C1` (racemic) [Example 44, 7-(8-chloronaphthalen-1-yl)-4-(6-fluoro-3,8-diazabicyclo[3.2.1]octan-3-yl)-2-((2-fluorotetrahydro-1H-pyrrolizin-7a(5H)-yl)methoxy)-5,6,7,8-tetrahydropyrido[3,4-d]pyrimidine], the IC50 on KRas G12D [1] worked out at 43.5 nM; in assay [2], 9030 nM. At KRas G12D [3], this molecule had a Kd of 43.9 nM.

Consider `CN1CCC[C@H]1COc1nc2c(c(N3C[C@H]4CC[C@@H](C3)N4)n1)CCN(c1c(F)cccc1C(F)(F)F)C2` [Example 75, 4-((1R,5S)-3,8-diazabicyclo[3.2.1]octan-3-yl)-7-(2-fluoro-6-(trifluoromethyl)phenyl)-2-(((S)-1-methylpyrrolidin-2-yl)methoxy)-5,6,7,8-tetrahydropyrido[3,4-d]pyrimidine], for which the 50% inhibitory concentration (IC50) at KRas G12D [1] is > 10000 nM; in assay [2] it was > 16700 nM. Also, on KRas G12D [3], the Kd was 170000 nM.

For `CN1CCC[C@H]1COc1nc2c(c(N3C[C@@H]4C[C@@H](O)[C@H](C3)N4)n1)CCN(c1cccc3cccc(Cl)c13)C2` [Example 95, (1S,5S,6R)-3-(7-(8-chloronaphthalen-1-yl)-2-(((S)-1-methylpyrrolidin-2-yl)methoxy)-5,6,7,8-tetrahydropyrido[3,4-d]pyrimidin-4-yl)-3,8-diazabicyclo[3.2.1]octan-6-ol], the values for the IC50 (at KRas G12D [1]; in assay [2]) were 50.6 nM and > 16700 nM, respectively. In addition, the Kd at KRas G12D [3] stood at 58.3 nM.

Take `CN1CCC[C@H]1COc1nc2c(c(N3C[C@H]4CC[C@@H](C3)N4)n1)CCN(c1cc(O)c(Br)c3ccccc13)C2` [Example 109, 4-(4-((1R,5S)-3,8-diazabicyclo[3.2.1]octan-3-yl)-2-(((S)-1-methylpyrrolidin-2-yl)methoxy)-5,8-dihydropyrido[3,4-d]pyrimidin-7(6H)-yl)-1-bromonaphthalen-2-ol]: the IC50 at KRas G12D [1] stood at 5.5 nM; in assay [2], 663 nM. Further, at KRas G12D [3], the Kd was determined as 20.8 nM.

Take `CN1CCC[C@H]1COc1nc2c(c(N3C[C@H]4CC[C@@H](C3)N4)n1)CCN(c1cccc3cccc(Cl)c13)C2` [Example 2, 4-((1R,5S)-3,8-diazabicyclo[3.2.1]octan-3-yl)-7-(8-chloronaphthalen-1-yl)-2-(((S)-1-methylpyrrolidin-2-yl)methoxy)-5,6,7,8-tetrahydropyrido[3,4-d]pyrimidine]: the IC50 on KRas G12D [1] amounted to 267 nM; in assay [2], 16100 nM. At KRas G12D [3], this molecule showed an equilibrium dissociation constant (Kd) of 163 nM.

As to `Oc1cc(N2CCc3c(nc(OC[C@@H]4CCCN4)nc3N3C[C@H]4CC[C@@H](C3)N4)C2)c2ccccc2c1Cl` [Example 27, 4-(4-((1R,5S)-3,8-diazabicyclo[3.2.1]octan-3-yl)-2-(((S)-pyrrolidin-2-yl)methoxy)-5,8-dihydropyrido[3,4-d]pyrimidin-7(6H)-yl)-1-chloronaphthalen-2-ol], the results for the IC50 (on KRas G12D [1]; in assay [2]) were 1600 nM and 11100 nM, respectively. Further, the affinity on KRas G12D [3], expressed as Kd, was 91.3 nM.

Take `CN1CCC[C@H]1COc1nc2c(c(N3C[C@H]4C[C@@H](O)[C@@H](C3)N4)n1)CCN(c1cc(O)cc3ccccc13)C2` (single isomer, unassigned) [Example 54]: the IC50 on KRas G12D [1] came to 41.1 nM; in assay [2], 1130 nM. The Kd on KRas G12D [3] is 501000 nM.

As to `Fc1ccc2cccc(N3CCc4c(nc(OCC56CCCN5CCC6)nc4N4C[C@H]5CC[C@@H](C4)N5)C3)c2c1Cl` [Example 62, 4-((1R,5S)-3,8-diazabicyclo[3.2.1]octan-3-yl)-7-(8-chloro-7-fluoronaphthalen-1-yl)-2-((tetrahydro-1H-pyrrolizin-7a(5H)-yl)methoxy)-5,6,7,8-tetrahydropyrido[3,4-d]pyrimidine], the IC50 on KRas G12D [1] is 1 nM; in assay [2], 1940 nM. This molecule also came in with a dissociation constant (Kd) at KRas G12D [3] of 8.1 nM.

Take `C[C@@H]1CC2CN(c3nc(OC[C@@H]4CCCN4C)nc4c3CCN(c3cccc5cccc(Cl)c35)C4)C[C@H]1N2` (single isomer, unassigned) [Example 87]: the IC50 at KRas G12D [1] was 271 nM; in assay [2], 13400 nM. For the same molecule, at KRas G12D [3], the dissociation constant Kd is 705 nM.

Regarding `Cc1cccc(N2CCc3c(nc(OCC45CCCN4CCC5)nc3N3C[C@H]4CC[C@@H](C3)N4)C2)c1C(F)(F)F` [Example 64, 4-((1R,5S)-3,8-diazabicyclo[3.2.1]octan-3-yl)-7-(3-methyl-2-(trifluoromethyl)phenyl)-2-((tetrahydro-1H-pyrrolizin-7a(5H)-yl)methoxy)-5,6,7,8-tetrahydropyrido[3,4-d]pyrimidine], the IC50 on KRas G12D [1] is 13 nM; in assay [2], > 16700 nM. The Kd on KRas G12D [3] is 67.3 nM.

For the molecule `CN1CCC[C@H]1COc1nc2c(c(N3C[C@@H]4C[C@H](O)[C@H](C3)N4)n1)CCN(c1cc(O)cc3ccccc13)C2` (single isomer, unassigned) [Example 55], the values for the IC50 (on KRas G12D [1]; in assay [2]) were 775 nM and 4880 nM, respectively. The same molecule returned a Kd on KRas G12D [3] of 38700 nM.

On to `O[C@@H]1C[C@@H]2CN(c3nc(OCC45CCCN4CC(F)C5)nc4c3CCN(c3cccc5cccc(Cl)c35)C4)C[C@H]1N2` (mixture of isomers) [Example 45, (1R,5R,6R)-3-(7-(8-chloronaphthalen-1-yl)-2-((2-fluorotetrahydro-1H-pyrrolizin-7a(5H)-yl)methoxy)-5,6,7,8-tetrahydropyrido[3,4-d]pyrimidin-4-yl)-3,8-diazabicyclo[3.2.1]octan-6-ol], for which the results for the IC50 (at KRas G12D [1]; in assay [2]) were 2.6 nM and 1360 nM, respectively. On KRas G12D [3], this molecule gave a Kd of 1.9 nM.

In the case of `CN1CCC[C@H]1COc1nc2c(c(N3C[C@H]4CC[C@@H](C3)N4)n1)CCN(c1c(F)ccc(F)c1C(F)F)C2` [Example 76, 4-((1R,5S)-3,8-diazabicyclo[3.2.1]octan-3-yl)-7-(2-(difluoromethyl)-3,6-difluorophenyl)-2-(((S)-1-methylpyrrolidin-2-yl)methoxy)-5,6,7,8-tetrahydropyrido[3,4-d]pyrimidine], the IC50 on KRas G12D [1] was > 10000 nM; in assay [2] it was > 16700 nM. The molecule also showed a Kd on KRas G12D [3] of 97000 nM.

The values above are taken from patent publication US12686692B2, “KRas G12D inhibitors” (Mirati Therapeutics, Inc., priority 2020, dated 2026).
